Values joined by “and” are separate entries in the source; they are usually repeats but may differ in a detail not shown here. Identical values can stand only once. Like-named read-outs stand apart in the source and are kept apart here.
Legend:
CHIKV (S27 strain) = CHIKV (S27 strain) CPE assay; assay type: cell-based, Chikungunya virus
VEEV (TC83 strain) = test: microbe, parasite or virus in culture; assay type: cell-based, Venezuelan equine encephalitis virus
in vitro = settings: African green monkey
pVSV-luc = test: microbe, parasite or virus in culture; assay type: cell-based, Vesicular stomatitis virus
VEEV V3526-luc = test: microbe, parasite or virus in culture; assay type: cell-based, Venezuelan equine encephalitis virus; settings: Venezuelan equine encephalitis virus
[1] = system: host gene expression in HEp-2 cells; test: DNA microarray host gene expression; assay type: cell-based, Human; settings: 5 μM, 18 hours
YFV 17D = assay type: cell-based, Yellow Fever virus
CHIKV S27 = assay type: cell-based, Chikungunya virus; settings: 5 μM
LCMV-ARM = assay type: cell-based, Lymphocytic Choriomeningitis Virus
Influenza virus A (H1N1) = assay type: cell-based
[2] = system: VEEV TrD (Trinidad donkey); assay type: cell-based, Venezuelan equine encephalitis virus
[3] = Tables 7-10, read-out: CHIKV (S27 strain) CPE Assay Potency mean EC50
[4] = read-out: VEEV (TC83 strain) CPE Assay Potency mean EC50
[5] = Chikungunya virus, read-out: CHIKV EC50
[6] = Venezuelan equine encephalitis virus, read-out: VEEV EC50

Row | SMILES | EC50 (CHIKV (S27 strain); [3]) [µM] | EC50 (VEEV (TC83 strain); [4]) [µM] | CC50 (Vero 76 cells) [µM] | also measured
1 | O=C(Cc1ccccc1C(F)(F)F)N(c1ccccc1)c1nc2c(s1)CCCC2 [Entry 19] | 1.2 | 1.2 | > 50 | 
2 | CN(C(=O)Cc1sccc1C(F)(F)F)c1nc2c(s1)CCCC2 [Entry 34] | > 50 |  | 6.4 | 
3 | CCOc1ccccc1CC(=O)N(c1nccs1)c1nc2c(s1)CCCC2 [Entry 23] | > 50 | > 50 | > 50 | 
4 | CCOc1ccccc1CC(=O)N(c1cccc(OC)c1)c1nc2c(s1)CCCC2 [Entry 21] | 4.1 | 1.7 | > 50 | 
5 | CCOc1ccccc1NC(=O)N(c1ccccc1)c1nc2c(s1)CCCC2 |  |  |  | EC50 (CHIKV (S27 strain); [5]): 12.2 µM; EC50 (VEEV (TC83 strain); [6]): 10 µM; CC50 (in vitro; CC50): > 50 µM
6 | Cc1ccc(CC(=O)N(c2ccccc2)c2nc3c(s2)CCCC3)s1 [Entry 29] | 0.11 | 0.03 | 7.8 | 
7 | CN(C(=O)Cc1sccc1F)c1nc2c(s1)CCCC2 [Entry 33] |  |  |  | EC50 (CHIKV (S27 strain); Chikungunya virus, Tables 7-10, read-out: CHIKV (S27 strain) CPE Assay Potency mean EC50): 0.3 µM; EC50 (VEEV (TC83 strain); Venezuelan equine encephalitis virus, read-out: VEEV (TC83 strain) CPE Assay Potency mean EC50): 0.4 µM; CC50 (in vitro; VERO Cell Cytotoxicity Assay mean CC50): 41.4 µM
8 | O=C(Cc1ccc(Br)s1)N(c1ccccc1)c1nc2c(s1)CCCC2 [Entry 27] | 0.05 | 0.02 | 17.2 | 
9 | CCOc1ccccc1CC(=O)N(c1nc2c(s1)CCCC2)C(C)C [Entry 14] | > 50 | 15.9 | > 50 | 
10 | CCOc1ccccc1CC(=O)N(c1nc2c(s1)CCCC2)c1ccccc1OC [Entry 20] | > 50 | > 50 | > 50 | 
11 | CC[C@@]1([C@@H]2O[C@@H]([C@H]3O[C@@](O)(CO)[C@H](C)C[C@@H]3C)C[C@@H]2C)CC[C@H]([C@]2(C)CC[C@]3(C[C@H](O)[C@@H](C)[C@@H]([C@@H](C)[C@@H](OC)[C@H](C)C(=O)O)O3)O2)O1 [Monensin, monensin, reference compound] |  |  |  | EC50 (pVSV-luc; Vesicular stomatitis virus, N2a, read-out: EC50 pVSV-Gp): 0.22 µM; EC50 (pVSV-luc; Vesicular stomatitis virus, read-out: EC50 values range): 0.17 to 0.56 µM; EC50 (pVSV-luc; read-out: EC50 pVSV-Gp): 0.19 µM; EC50 (VEEV V3526-luc; N2a, read-out: EC50 V3526-luc): 0.25 µM; EC50 (VEEV V3526-luc; NIH3T3, read-out: EC50 V3526-luc): 0.02 µM; EC50 (VEEV V3526-luc; Vero 76, read-out: EC50 V3526-luc): 3.87 µM; EC50 (VEEV V3526-luc; read-out: EC50 V3526-luc): 0.02 µM; EC50 (VEEV V3526-luc; read-out: EC50 values range): 0.02 to 0.25 µM
12 | COCc1ccccc1CC(=O)N(C)c1nc2c(s1)CCCC2 [Entry 9] | 9.3 | 9.1 | > 50 | 
13 | O=C(Cc1cccs1)N(c1ccccc1)c1nc2c(s1)CCCC2 [CB10002623] |  |  |  | GBP2 expression upregulation [1]: 3.5; IFI44 expression upregulation [1]: 2.83; IFIT1 expression upregulation [1]: 2.3; IRF9 expression upregulation [1]: 2.4; ISG20 expression upregulation [1]: 2.85; OASL expression fold increase [1]: 3.76 fold; expression of IFN-ε [1]: decreased in half; RIG-I expression fold increase ([1]; vs DMSO): 4.63 fold
14 | CCOc1ccccc1C1CCN(c2nc3c(s2)CCCC3)C1=O (stereo not drawn) |  |  |  | EC50 (CHIKV (S27 strain); [5]): > 50 µM; EC50 (VEEV (TC83 strain); [6]): 4.5 µM; CC50 (in vitro; CC50): > 50 µM
15 | CCOc1ccccc1CC(=O)N(CCOC)c1nc2c(s1)CCCC2 [Entry 16] | 10.9 | 10.9 | > 50 | 
16 | COc1ccccc1CC(=O)N(c1ccccc1)c1nc2c(s1)CCCC2 [Entry 17] | 0.5 | 0.7 | > 50 | 
17 | CCOc1ccccc1CC(=O)N(c1cccnc1)c1nc2c(s1)CCCC2 [Entry 24] | 10.6 | 2.5 |  | 
18 | COc1csc(CC(=O)N(C)c2nc3c(s2)CCCC3)c1 [Entry 31] | 0.14 | 0.05 | 36.1 | 
19 | CN(C(=O)Cc1sccc1F)c1nc2c(s1)CCCC2 [B] |  |  |  | Log titer reduction at 5 μM (YFV 17D): 2.32 log; Log titer reduction at 5 μM (CHIKV S27): 4.024 log; Log titer reduction at 5 μM (LCMV-ARM): 3.466 log; Log titer reduction at 5 μM (Influenza virus A (H1N1)): 4.949 log; Log titer reduction at 5 μM [2]: 4.768 log
20 | Cc1ccc(CC(=O)N(C)c2nc3c(s2)CCCC3)cc1 [Entry 12] | 4.1 | 0.9 | > 50 | 

Row | SMILES | EC50 (CHIKV (S27 strain); [3]) [µM] | EC50 (VEEV (TC83 strain); [4]) [µM] | CC50 (Vero 76 cells) [µM] | also measured
21 | CN(C(=O)Cc1ccc(C(F)(F)F)s1)c1nc2c(s1)CCCC2 [Entry 35] | > 50 | > 50 | > 50 | 
22 | O=C(Cc1sccc1Br)N(c1ccccc1)c1nc2c(s1)CCCC2 [Entry 28] | 0.05 | 0.02 | 22.4 | 
23 | CCOc1ccccc1CC(=O)N(c1nc2c(s1)CCCC2)C1CCOCC1 [Entry 15] | > 50 | 12.5 | > 50 | 
24 | Cc1cccc(CC(=O)N(C)c2nc3c(s2)CCCC3)c1 [Entry 11] | 2.8 | 1.3 | > 50 | 
25 | O=C(Cc1cccs1)Nc1nc2c(s1)CCCC2 [A] |  |  |  | Log titer reduction at 5 μM (CHIKV S27): 0.61 log and 0.612 log; Log titer reduction at 5 μM (LCMV-ARM): 0.085 log; Log titer reduction at 5 μM (Influenza virus A (H1N1)): 4.949 log; Log titer reduction at 5 μM [2]: 1.765 log
26 | Cc1csc(CC(=O)N(C)c2nc3c(s2)CCCC3)c1 [C] |  |  |  | Log titer reduction at 5 μM (YFV 17D): 2.588 log; Log titer reduction at 5 μM (CHIKV S27): 3.62 log; Log titer reduction at 5 μM (LCMV-ARM): 3.014 log; Log titer reduction at 5 μM (Influenza virus A (H1N1)): 3.075 log; Log titer reduction at 5 μM [2]: 3.741 log
27 | O=C(Cc1ccccn1)N(c1ccccc1)c1nc2c(s1)CCCC2 [Entry 25] | > 50 | > 50 | 33.2 | 
28 | Cc1csc(CC(=O)N(C)c2nc3c(s2)CCCC3)c1 [Entry 30] | 0.09 | 0.02 | 36.4 | 
29 | CCOc1ccccc1CC(=O)N(C)c1nc2c(s1)CCCC2 [E] |  |  |  | Log titer reduction at 5 μM (CHIKV S27): 3.161 log; Log titer reduction at 5 μM [2]: 3.411 log
30 | O=C(Cc1sccc1Br)N(c1ccccc1)c1nc2c(s1)CCCC2 [G] |  |  |  | Log titer reduction at 5 μM (CHIKV S27): 5.179 log; Log titer reduction at 5 μM [2]: 4.754 log
31 | O=C(Cc1ccco1)N(c1ccccc1)c1nc2c(s1)CCCC2 [Entry 26] | 8.2 | 6.8 | 25.8 | 
32 | COc1ccccc1CC(=O)N(c1ccccc1)c1nc2c(s1)CCCC2 [F] |  |  |  | Log titer reduction at 5 μM (CHIKV S27): 2.495 log; Log titer reduction at 5 μM [2]: 3.198 log
33 | CCOc1ccc(CC(=O)N(C)c2nc3c(s2)CCCC3)cc1 [Entry 8] | > 50 | > 50 | > 50 | 
34 | Cc1ccc(C)c(CC(=O)N(C)c2nc3c(s2)CCCC3)c1 [Entry 13] | 8.9 | 11.7 | > 50 | 
35 | Cc1ccccc1CC(=O)N(C)c1nc2c(s1)CCCC2 [Entry 10] | 3.6 | 1 | > 50 | 
36 | CCOc1ccccc1CC(=O)N(c1ccc(OC)cc1)c1nc2c(s1)CCCC2 [Entry 22] | > 50 | 4.6 | > 50 | 
37 | CN(C(=O)Cc1cc(F)cs1)c1nc2c(s1)CCCC2 [Entry 32] | 10.2 | 5.1 | 22.5 | 
38 | O=C(Cc1cccs1)Nc1nc2c(s1)CCCC2 [Entry 1] | 4.9 | 5.1 | > 50 | 
39 | COc1ccccc1CC(=O)N(C)c1nc2c(s1)CCCC2 [D] |  |  |  | Log titer reduction at 5 μM (CHIKV S27): 2.182 log; Log titer reduction at 5 μM [2]: 2.716 log

From patent publication US20180086749A1, “INHIBITORS OF VIRUSES” (priority 2015, published 2018)
